The text below walks through data of patent US20150290105A1, “COMPOSITION COMPRISING SYRINGARESINOL FOR IMPROVING THE SKIN” (AMOREPACIFIC CORPORATION, priority 2011, published 2015).

A short description of test [1]: Free radical scavenging ability (DPPH). The following applies: 37° C. 30 minutes, FIG. 2. As for the experimental part: A radical solution was prepared by dissolving 100 µM diphenylpicrylhydrazyl (DPPH), composed of stable free radicals, in 99% ethanol. A reaction solution was prepared by dissolving syringaresinol in distilled water with different concentrations (pg/mL) and mixing the syringaresinol solution with the radical solution. A reaction solution not containing syringaresinol was used as a negative control and a reaction solution containing vitamin C (Vit C) was used as a positive control. After sufficiently reacting at 37° C. for 30 minutes, radical scavenging ability was evaluated by measuring absorbance at 515 nm. The radical scavenging ability was calculated relative to the negative control group as 100.
(In general: Loss of DPPH colour is used to gauge radical scavenging.)

Test [2] can be described thus: Keratin reducing effect on human skin (Charm View). It is filed as in vivo. Here is the method:
In order to investigate whether syringaresinol can reduce the keratin of skin, syringaresinol of the same concentration as in Test Example 6 was applied on the inside of the lower arms of 50 male and female adults in their 20s and 30s and without skin diseases. 24 hours later, the reduced amount of keratin was measuring using Charm View (Moritex, Japan). The initial amount of skin keratin prior to application of the test substance measured with Charm View under a constant-temperature (24° C.), constant-humidity (40%) condition was used as a reference value, and the change in the amount of keratin was measured 24 hours later.

Another test deals with SIRT1. Description: SIRT1 expression promoting effect in human keratinocytes. Format: cell-based. The following applies: HaCaT cells, 20, 50 or 100 μM, 24 hours, FIG. 3. As for the experimental part: Human keratinocyte HaCaT cells or human fibroblast HDF cells were cultured under the condition of 37° C. and 5% CO2 in DMEM ((Gibco 1210-0038)) containing 10% fetal bovine serum.
The cultured cells were treated with syringaresinol dissolved in DMSO at a concentration of 20, 50 or 100 μM for 24 hours. Separately from this, the cells were treated with DMSO of 1/1000 of the volume of the culture medium as a negative control. After treating with the test substance, the cells were washed twice with cold PBS and RNA was extracted using TRIzol reagent (Invitrogen). Then, cDNA was synthesized using 1 μg/μL of the extracted RNA and a reverse transcription system (Promega). The expression pattern of the SIRT1 and GAPDH genes was monitored using the synthesized cDNA and predesigned primers and probes (Applied Biosystems; SIRT1, Hs01009006_ml; GAPDH, Hs99999905_ml). PCR reaction and analysis were carried out using the Rotor-Gene 3000 system (Corbett Research, Sydney, Australia). The result is shown in FIG. 3 (keratinocytes) and FIG. 4 (fibroblasts).

In a further test the test system is involucrin. Description: Involucrin expression promoting effect in human keratinocytes. Format: cell-based. The following applies: HaCaT cells, FIG. 5. As for the experimental part:
(§1) Human keratinocyte HaCaT cells were cultured in substantially the same manner as in Test Example 10.
cDNA was synthesized in substantially the same manner as in Test Example 10 and the expression pattern of the filaggrin, involucrin and GAPDH genes was monitored substantially the same manner as in Test Example 10 using the synthesized cDNA and predesigned primers and probes (Applied Biosystems; […]; GAPDH, Hs99999905_ml).

A further test relates to collagen IV. The test can be described thus: UV-induced collagen breakdown in human keratinocytes (western blot). It is filed as cell-based. The following applies: HaCaT cells, 50 μM, UVB 30 mJ/cm^2, FIG. 6. Here is the method:
as §1
The cultured cells were treated with trypsin to obtain a single-cell suspension. Then, the cells were distributed in a 6-well plate, with 2×10^5 cells per well, and cultured for 24 hours. Subsequently, after replacing the medium with DMEM not containing fetal bovine serum and culturing again for 24 hours, the cells were treated with 50 μM syringaresinol dissolved in DMSO. After treating for 24 hours, the cells were washed with PBS and UVB of 30 mJ/cm^2 was irradiated in PBS. After discarding the PBS, the cells were added to a medium containing syringaresinol of the same concentration. As a control group, the cells were cultured in the same manner without treating with syringaresinol. […] Then, after centrifuging at 4° C. for 10 minutes with 15,000 g, the supernatant was recovered and protein was quantitated using Bio-Rad Protein Dye ReagentTM. […] Bands on the film were scanned with PowerLook 2100 XL (UMAX) and analyzed with the image-analyzing program ImageMaster 2D Elite (Amersham Bioscience).
(A western blot detects proteins with antibodies after separation by electrophoresis.)

A further test has as its system TGF-β1. Description: TGF-β1 production in fibroblasts (ELISA). Format: cell-based, human. The following applies: HDF cells, 24 hours. As for the experimental part:
Human fibroblast HDF cells were cultured in substantially the same manner as in Test Example 10.
The cultured cells were treated with syringaresinol dissolved in DMSO to a concentration of 20, 50 or 100 μM for 24 hours. After 24 hours, the cell culture was recovered.
The quantity of TGF-β1 produced in the recovered cell culture was measured using the Quantikine™ high-sensitivity ELISA kit (R&D Systems, USA) according to the manufacturer's instructions. All the samples required for the measurement of the quantity of TGF-β1 were provided by the kit. First, the recovered cell culture was transferred to a 96-well microplate uniformly coated with TGF-β1 antibody and it was allowed for antigen-antibody reaction to proceed at 37° C. for 1 hour. After removing the cell culture, the wells were washed 3 times with PBS. Then, horseradish peroxidase-conjugated secondary antibody was added to each well and it was allowed for antigen-antibody reaction to proceed for 1 hour. Subsequently, after adding tetramethylbenzidine as a chromogenic substrate to each well, followed by reaction at room temperature for 15 minutes, 1 N sulfuric acid was added to stop the reaction. Then, absorbance was measured at 450 nm using a spectrophotometer. After drawing a standard curve using a standard solution, the TGF-β1 production amount in the cell culture with the test substance added was calculated from the measured absorbance.
Background: In an ELISA, binding on a coated surface is turned into a signal by an enzyme label.

`COc1cc(C2OCC3C(c4cc(OC)c(O)c(OC)c4)OCC23)cc(OC)c1O` (stereo not drawn) [Syringaresinol, syringaresinol]: the “Free radical scavenging ability” value in test [1] is “scavenge free radicals in a concentration-dependent manner and the effect is superior to that of vitamin C”. Besides, in test [2] (1% applied on lower arm, 24 hours), the “Amount of skin keratin, 24 hours later” value is 11.9. The “Amount of skin keratin, Before application” value in test [2] (reference value, 24° C., 40% humidity) was determined as 20.3. For the same compound, the “Increase of SIRT1 expression” value in the test on SIRT1 is at least 4 times. For the same compound, in the test with involucrin, the Expression of involucrin result is recorded as “increases the expression”. The UV-induced collagen breakdown result in the test with collagen IV was “inhibits collagen breakdown”. The TGF-β1 production amount in the test on TGF-β1 (20 μM) was 43.3 ± 1.0; with TGF-β1 (50 μM), 87.2 ± 4.2; with TGF-β1 (100 μM) it was 92.1 ± 5.6.
